From ChEMBL document CHEMBL1201862, “PubChem BioAssay data set” (2004)
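Step 1: Grow cells in 96-well plates. Step 2: Expose to compound for 48 hours at 5 concentrations. Step 3: Interpolate endpoints linearly; if unreached, use highest concentration. GI50 is the concentration that inhibits growth by half.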 Active and inactive are the calls of the source. Rule as the data show it: active = GI50 up to about 1.1 µM and inactive = higher.

What was measured:
Test in all cases: inhibition of tumour cell growth, NCI panel, 48 h
[1] = test system: A549
[2] = test system: BT-549
[3] = test system: EKVX
[4] = test system: HCT-116
[5] = test system: HOP-92
[6] = test system: MCF7
[7] = test system: MDA-N
[8] = test system: NCI-H23
[9] = test system: NCI-H460
[10] = test system: OVCAR-3
[11] = test system: OVCAR-4
[12] = test system: PC-3
[13] = test system: RXF 393
[14] = test system: SK-MEL-28
[15] = test system: SW-620
[16] = test system: T47D
[17] = test system: U-251
[18] = test system: Malme-3M
[19] = test system: Hs-578T
[20] = test system: SK-MEL-2

Measured: GI50

Cc1cc(C#N)c(Nc2ccccc2[N+](=O)[O-])s1
inactive: [1] 85.3 µM | [2] 19.4 µM | [3] 22.3 µM | [4] 23.8 µM | [5] 57.9 µM | [6] 32.5 µM | [7] 14.9 µM | [8] 26.1 µM | [9] 36.6 µM | [10] 21 µM | [11] 89.3 µM | [12] 23.8 µM | [13] 3.96 µM | [14] 45.2 µM | [15] 25.5 µM | [16] 36.6 µM | [17] 20.3 µM

CN(C)/C=[N+]1/[C@@H](Cc2ccccc2)C(=O)O[B-]1(F)c1ccccc1 (some centres not stated)
inactive: [1] > 100 µM | [2] > 100 µM | [3] > 100 µM | [4] > 100 µM | [5] > 100 µM | [6] > 100 µM | [7] > 100 µM | [18] > 100 µM | [8] > 100 µM | [9] > 100 µM | [10] > 100 µM | [11] > 100 µM | [12] > 100 µM | [14] > 100 µM | [15] > 100 µM | [16] > 100 µM | [17] > 100 µM

Nc1ccc(S(=O)(=O)c2ccc(/N=[N+](\[O-])c3ccc(S(=O)(=O)c4ccc(N)cc4)cc3)cc2)cc1
inactive: [1] > 100 µM | [2] 27.2 µM | [3] 50 µM | [4] 46.5 µM | [5] 10.1 µM | [19] 8.39 µM | [6] > 64.6 µM | [18] > 56.4 µM | [8] 34.8 µM | [9] 66.5 µM | [10] 31 µM | [11] 19.4 µM | [12] > 55.3 µM | [13] 7.66 µM | [14] > 80.4 µM | [20] > 49.1 µM | [15] > 100 µM | [16] > 48 µM | [17] 27.7 µM

O=C(/C=C/c1ccc(-c2ccccc2[N+](=O)[O-])o1)NCc1ccc(C(=O)NCCc2ccccc2)cc1
inactive: [1] > 100 µM | [2] > 100 µM | [3] > 100 µM | [4] > 100 µM | [5] > 100 µM | [19] > 100 µM | [6] > 100 µM | [18] > 100 µM | [8] > 100 µM | [9] > 100 µM | [10] > 100 µM | [11] > 100 µM | [12] > 100 µM | [13] > 100 µM | [14] > 100 µM | [20] 21.2 µM | [15] > 100 µM | [16] > 100 µM | [17] > 100 µM

CCCCCCc1ccc(CCCCCCCC(=O)O)o1
inactive: [1] 50 µM | [2] > 100 µM | [3] > 100 µM | [4] 68.5 µM | [5] > 100 µM | [6] 44.8 µM | [7] > 100 µM | [8] > 100 µM | [9] > 100 µM | [10] 34.2 µM | [11] > 100 µM | [12] > 100 µM | [14] > 100 µM | [20] > 100 µM | [15] > 100 µM | [16] > 100 µM

O=CN1CCN(C(=O)c2ccc(Cl)c(Cl)c2)C1=S
inactive: [1] 17.7 µM | [2] 18 µM | [3] 17.5 µM | [4] 16.3 µM | [19] 39.5 µM | [6] 4.63 µM | [18] 20.5 µM | [8] 20.9 µM | [9] 19.2 µM | [10] 15 µM | [11] 18.2 µM | [12] 14.7 µM | [13] 17.5 µM | [14] 18.2 µM | [20] 15.3 µM | [15] 19.4 µM | [16] 15.3 µM | [17] 12.5 µM

O=[N+]([O-])c1ccc(CSc2nncc3[nH]cnc23)cc1
inactive: [1] > 100 µM | [2] 85.3 µM | [3] > 100 µM | [4] > 100 µM | [5] 10.6 µM | [6] > 100 µM | [7] > 100 µM | [18] 66.8 µM | [8] > 100 µM | [10] > 100 µM | [11] > 100 µM | [12] > 100 µM | [14] > 100 µM | [20] 83.6 µM | [15] > 100 µM | [16] > 100 µM | [17] > 100 µM

O=C(CC(=O)N1N=C(N(c2ccccc2)c2ccccc2)CC1c1ccccc1)Nc1ccc(Cl)cc1 (configuration not stated)
inactive: [1] > 100 µM | [2] > 100 µM | [3] > 100 µM | [4] > 100 µM | [5] > 100 µM | [19] > 100 µM | [6] > 100 µM | [8] > 100 µM | [9] > 100 µM | [10] > 100 µM | [11] > 100 µM | [12] > 100 µM | [13] > 100 µM | [14] > 100 µM | [20] > 100 µM | [15] > 100 µM | [16] > 100 µM | [17] > 100 µM

COc1ccc2c(c1)CCN1CCc3cc(OC)c(OC)cc3CC21 (configuration not stated)
inactive: [1] > 100 µM | [2] 10.3 µM | [3] > 10 µM | [4] 41.9 µM | [5] 89.3 µM | [19] 89.5 µM | [6] 90.4 µM | [8] 98.9 µM | [11] > 100 µM | [13] 69 µM | [14] > 100 µM | [15] 80.5 µM | [16] 73.3 µM | [17] 72.3 µM

COC(=O)C1=COC(OC2OC(CO)C(O)C(O)C2O)C2C3CN4CCc5c([nH]c6ccccc56)C4(CC12)O3 (configuration not stated)
inactive: [1] > 100 µM | [2] > 100 µM | [3] > 100 µM | [4] > 100 µM | [6] > 100 µM | [7] > 100 µM | [18] > 100 µM | [8] > 100 µM | [9] > 100 µM | [10] > 100 µM | [11] > 100 µM | [12] > 100 µM | [13] > 100 µM | [14] > 100 µM | [20] > 100 µM | [15] > 100 µM | [16] > 100 µM | [17] > 100 µM

COc1cc(C2C3=C(NC(=O)C2C#N)c2ccc4ccccc4c2OCC3)cc(OC)c1OC (configuration not stated)
inactive: [1] 54.2 µM | [2] 17.3 µM | [3] 89.7 µM | [4] 15.7 µM | [5] 10.4 µM | [19] 20.9 µM | [6] 30.9 µM | [18] 17.8 µM | [8] 41.3 µM | [9] 25.9 µM | [10] 45 µM | [11] 48 µM | [12] 49.3 µM | [13] 14.4 µM | [14] 18.3 µM | [20] 22.1 µM | [15] 78.7 µM | [16] 12.2 µM | [17] 16.7 µM
